Assay results reported in paper PMC6934184, “Selective DNA-PKcs inhibition extends the therapeutic index of localized radiotherapy and chemotherapy” (The Journal of Clinical Investigation, 2019).
Where “and” joins values, the source holds several entries; their conditions need not be identical. Equal entries are not always repeated.

Key:
SJSA-1 tumor xenografts = assay: subcutaneous SJSA-1 xenograft with parenteral etoposide; format: in vivo, CD-1 nude mice; details: etoposide 5 mg/kg i.p., 5 consecutive days
Procedure: Combining systemic administration of etoposide + NU5455 in vivo
SJSA1 cells (1 x 10^7 cells/mouse in 50 µl, 50% v/v Matrigel) were implanted s.c. into the right flank of female CD-1 nude mice. When tumor volumes reached 103-121 mm3 mice were treated daily, for five consecutive days, with NU5455 (30 mg/kg or 100 mg/kg once -daily p.o. in NMP:Encapsin (30% aq):PEG4000 (1:6:3 v/v/v) ) or vehicle, followed immediately with etoposide (5 mg/kg i.p. in saline). Body weight and tumor volume measurements were taken daily during treatment and three times per week post -treatment. Tumor volume was calculated from two-dimensional electronic caliper measurements (Mitutoyo) using the equation ‘width2 x length/2’, where width was the smaller side, and length the longer dimension of the tumor. Mice were humanely killed when; (i) an adverse effect on clinical condition was evident, (ii) tumor bilateral measurements reached 10 mm x 10 mm, (iii) a tumor measurement in any di mension reached 15 mm, or (iv) at study termination. […]

[1] = tested on: NHEJ-mediated DSB repair in HEK293T cells; assay: NHEJ plasmid repair assay; format: cell-based, Human; details: 10 µM; 24 hours; AfeI or ScaI linearized plasmid
Procedure: The ability of NU5455 to impair the nonhomologous end joining (NHEJ) ability of cells was assessed using a modified version of a DNA repair assay developed by Nagel et al. ([52]), which measures the repair of a plasmid encoding blue fluorescent protein (BFP) and GFP linearized by either an ScaI or an AfeI restriction digestion. Full experimental details are given in Supplemental Methods.
(§1) Membranes were then washed in TBST and incubated with HRP-conjugated goat anti-mouse or anti-rabbit antibodies (P0447 and P0448 respectively, Dako) in 5% (w/v) milk/TBST at room temperature for 1-2 hours. Conjugates were detected using Clarity Western ECL Substrate (BioRad) and chemiluminescence imaged using the Fuji LAS-3000 Luminescent Image Analyzer System (Fujifilm).
Densitometry analysis was performed using AIDA Image Analyzer software (Raytest). The intensity of all bands was determined following a background subtraction, and the level of pDNA-PKcs stimulation determined by subtracting basal unstimulated pDNA-PKcs Ser2056 levels. pDNA-PKcs Ser2056 band intensity was calculated relative to total DNA-PKcs band intensity, and is given as percentage expression relative to irradiated, DMSO-treated cells. […]
violet laser with 440/50 emission filter to detect blue fluorescence using the VL1 channel. […]
Data were analyzed by FCS Express 6 Flow Research Edition (De Novo Software). […]

MCF7 cells = assay: clonogenic survival with 2 Gy IR, DNA repair inhibitors; format: cell-based, Human; details: 1 h before and 24 h after IR
Procedure: Cells were washed in phosphate-buffered saline (PBS), trypsinized and counted. Cells were then reseeded at a known density in drug-free medium into 10 cm dishes (100 - 10 000 cells/dish) and incubated for 8-21 days. Colonies were fixed using Carnoys fixture (75% v/v methanol, 25% v/v acetic acid, Fisher), stained with crystal violet (0.4% w/v in water), and counted using a ColCount automated colony counter (Oxford Optronics). Cell survival was calculated as a percentage of the untreated control.
Alternatively, exponentially growing MCF7 cells were exposed to a range of concentrations of the PARP inhibitor rucaparib, the ATM inhibitor KU55933, the ATR inhibitor VE-821 or NU5455 for 1 hour prior to irradiation with 2 Gy. Cells were then incubated in the continued presence of the DNA repair inhibitors for a further 24 hours prior to replating. […]

PI3K = assay: IGF-1-stimulated phospho-AKT Ser473 in MCF7 cells, Western blot; format: cell-based, Human; details: 1 μM, 50 ng/mL IGF-1, 30 min
Procedure: (§2) Exponentially growing MCF7 cells were exposed to a range of concentrations of NU5455 and NU7441 (0.03–10 μM) for 1 hour. To assess the ability of NU5455 and NU7441 to inhibit autophosphorylation of DNA-PKcs at Ser2056, cells were treated with 10 Gy irradiation and incubated for 30 minutes. Alternatively, to investigate the effects of NU5455 and NU7441 against PI3K-dependent phosphorylation of AKT at Ser473, cells were treated with 50 ng/mL insulin-like growth factor-1 (IGF-1; Invitrogen) for 30 minutes. Cell lysates were prepared for the detection of p–DNA-PKcs Ser2056 and total DNA-PKcs, or p–AKT Ser473 and total AKT, respectively, using Western blotting. […]
(§3) Protein lysates were quantified using the Pierce BCA Protein Assay (ThermoFisher). […]
as §1, with “(Fujifilm). […]” for “(Fujifilm).”
(§4) Alternatively, basal pAKT Ser473 levels were subtracted from all other pAKT bands, and pAKT band intensity calculated relative to total AKT expression and given as a percentage relative to IGF-1 stimulated, DMSO-treated cells. […]

DNA-PK = DNA-PK (Homo sapiens, UniProt P78527); assay: radiation-induced phospho-DNA-PK Ser2056 in MCF7 cells, Western blot; format: cell-based; parameters: endogenous in cells; host or cells: MCF7; details: 1 h pretreatment, 30 min after 10 Gy IR, read-out: IC50, radiation-induced activation of DNA-PK (phospho–DNA-PK Ser2056)
Procedure: as §2, §3
as §1, with “(Fujifilm). […]” for “(Fujifilm).”
as §4

A549 = assay: growth inhibition, 72 hour incubation; format: cell-based, Human; details: read-out: Nutlin-3a GI50, individual determinations
Procedure: (§5) Supplemental Table 3. TP53 status of cell lines used.
(§6) incubation with the compound (see Supplemental Methods). GI50 values shown represent either individual determinations or the
(§7) References: (1) Melnikova VO et al., Oncogene, […]

Calu6 = assay: growth inhibition, 72 hour incubation; format: cell-based, Human; details: read-out: Nutlin-3a GI50, individual determinations
Procedure: as §5, §6, §7

HCT116 = assay: growth inhibition, 72 hour incubation; format: cell-based, Human; details: read-out: Nutlin-3a GI50, mean with standard deviation
Procedure: as §5, §6, §7

Hep3B = assay: growth inhibition, 72 hour incubation; format: cell-based, Human; details: read-out: Nutlin-3a GI50, individual determinations
Procedure: as §5, §6, §7

Huh7 = assay: growth inhibition, 72 hour incubation; format: cell-based, Human; details: read-out: Nutlin-3a GI50, individual determinations
Procedure: as §5, §6, §7

MCF10a = assay: growth inhibition, 72 hour incubation; format: cell-based, Human; details: read-out: Nutlin-3a GI50, mean with standard deviation
Procedure: as §5, §6, §7

NHDF = assay: growth inhibition, 72 hour incubation; format: cell-based, Human; details: read-out: Nutlin-3a GI50, individual determination
Procedure: as §5, §6, §7

SN40R2 = assay: growth inhibition, 72 hour incubation; format: cell-based, Human; details: read-out: Nutlin-3a GI50, individual determination
Procedure: as §5, §6, §7

HepG2 = assay: growth inhibition, 72 hour incubation; format: cell-based, Human; details: read-out: Nutlin-3a GI50, mean with standard deviation
Procedure: HepG2 Human WT 1.0 ± 0.18 COSMIC […]
as §5, §6, §7

MCF7 = assay: growth inhibition, 72 hour incubation; format: cell-based, Human; details: read-out: Nutlin-3a GI50, mean with standard deviation
Procedure: MCF7 Human WT 2.3 ± 0.20 COSMIC […]
as §5, §6, §7

4T1 = assay: growth inhibition, 72 hour incubation; format: cell-based, Mouse; details: read-out: Nutlin-3a GI50, individual determinations
Procedure: as §5, §6, §7

B16F10 = assay: growth inhibition, 72 hour incubation; format: cell-based, Mouse; details: read-out: Nutlin-3a GI50, mean with standard deviation
Procedure: as §5, §6, §7

M2-10B4 = assay: growth inhibition, 72 hour incubation; format: cell-based, Mouse; details: read-out: Nutlin-3a GI50, mean with standard deviation
Procedure: as §5, §6, §7

NIH3T3 = assay: growth inhibition, 72 hour incubation; format: cell-based, Mouse; details: read-out: Nutlin-3a GI50, mean with standard deviation
Procedure: as §5, §6, §7

SJSA-1 = assay: growth inhibition, 72 hour incubation; format: cell-based, Human; details: read-out: Nutlin-3a GI50, mean with standard deviation
Procedure: SJSA-1 Human WT 1.9 ± 0.19 COSMIC […]
as §5, §6, §7

In the case of `COc1cc([C@@H]2c3cc4c(cc3[C@@H](O[C@@H]3O[C@@H]5CO[C@@H](C)O[C@H]5[C@H](O)[C@H]3O)[C@H]3COC(=O)[C@H]23)OCO4)cc(OC)c1O` [Etoposide, etoposide, reference compound], the “antitumor effect, monotherapy” value (SJSA-1 tumor xenografts) is reported as “relatively marginal antitumor effect”.

For `O=c1cc(-c2cccc3c2Sc2ccccc2S3)oc(N2CCOCC2)c1` [KU55933, reference compound], the “repair of DNA-DSBs (NHEJ plasmid repair)” value [1] was “NU5455 but not the ATM inhibitor KU55933 inhibits NHEJ-mediated DSB repair” and the “SER (sensitization enhancement ratio), enhancement of 2 Gy IR clonogenic cell killing” value (“SER (sensitization enhancement ratio)” below) (MCF7 cells; at 10 μM) was 2.3 fold.

With `O=c1cc(N2CCOCC2)oc2c(-c3cccc4c3sc3ccccc34)cccc12` [NU7441, reference compound] the “inhibition of IGF/PI3K-stimulated signaling response (phospho–AKT Ser473)” value (PI3K) was 40% ± 7% and the IC50 (DNA-PK) was 405 nM.

`COc1ccc(C2=N[C@@H](c3ccc(Cl)cc3)[C@@H](c3ccc(Cl)cc3)N2C(=O)N2CCNC(=O)C2)c(OC(C)C)c1` [Nutlin-3a] was tested, and the GI50 (A549) was 2400 nM and 2900 nM, the GI50 (Calu6) was over 30000 nM and the GI50 (HCT116) was 2100 ± 710 nM. The GI50 (Hep3B) was over 30000 nM, the GI50 (Huh7) was > 10000 nM and 27000 nM and the GI50 (MCF10a) was 5100 ± 2800 nM. It also gave a GI50 (NHDF) of 2700 nM, a GI50 (SN40R2) of over 30000 nM and a GI50 (HepG2) of 1000 ± 180 nM. It also gave a GI50 (MCF7) of 2300 ± 200 nM, a GI50 (4T1) of over 30000 nM and a GI50 (B16F10) of 5700 ± 1800 nM. The GI50 (M2-10B4) was 3300 ± 640 nM, the GI50 (NIH3T3) was 4000 ± 1100 nM and the GI50 (SJSA-1) was 1900 ± 190 nM.

In the case of `CS(=O)(=O)c1ccc(-c2cnc(N)c(C(=O)Nc3ccccc3)n2)cc1` [VE-821], the “SER (sensitization enhancement ratio)” value (MCF7 cells; at 1 μM) is reported as 1.6 fold.

`CNCc1ccc(-c2[nH]c3cc(F)cc4c3c2CCNC4=O)cc1` [rucaparib] was tested, and the “SER (sensitization enhancement ratio)” value (MCF7 cells; at 1 μM) was 1.4 fold.
